Drawing on US20240025885A1, “TRIAZINE DERIVATIVES AND METHODS OF USE THEREOF” (priority 2022, published 2024), this text covers EC50 and AUC(0-t) for 11 molecules.

Series [1] relates to SARS-CoV-2 Omicron hCoV-19/USA/MD HP20874/2021 (B.1.1.529) strain. Nature of the series: In vitro antiviral activity against SARS-CoV-2 Omicron B.1.1.529 in Calu-3 cells (NP ELISA, percent virus reduction). The series is classed as cell-based. The following applies: Severe acute respiratory syndrome coronavirus 2, Calu-3, 48 h. A general note: In an ELISA, binding on a coated surface is turned into a signal by an enzyme label.

Series [2] can be described thus: in vivo. As to the method: At Model Pharmacokinetic Properties Testing
Oral administration: the compound was administered with a volume ratio of Solutol:PEG400:Tween80:Saline=10:40:2:48 at a dose of 10 mg/kg. blood was taken continuously from the fundus venous plexus at 0.25 h, 0.5 h, 1 h, 2 h, 4 h, 8 h, 10 h, 12 h, and 24 h after administration in EP tubes containing EDTA, centrifuged at 8000 rpm/min for 5 min and then the upper layer of plasma was frozen at −80° C. and stored for LC-MS/MS analysis.
Intravenous administration: the compound was administered with a volume ratio of 10% DMSO/30% PEG400/60% water at a dose of 1 mg/kg). At 0.0833 h, 0.25 h, 0.5 h, 1 h, 2 h, 4 h, 8 h, 12 h and 24 h after drug administration, blood was serially collected from the fundus venous plexus in EP tubes containing EDTA, centrifuged at 8000 rpm/min for 5 min and then the upper layer of plasma was frozen at −80° C. and stored for LC-MS/MS analysis.
The pharmacokinetic parameters were calculated using WinNonlin software base on the blood concentration-time data obtained from the tests.

The nature of series [3]: in vivo. Particulars: crab-eating monkey, plasma. As to the method:
Crab-Eating Monkey Pharmacokinetic Properties Testing
Oral administration: the compound was administered with a volume ratio of Solutol:PEG400:Tween80:Saline=10:40:2:48 at a dose of 2 mg/kg. The blood was taken continuously at 0.25 h, 0.5 h, 1 h, 2 h, 4 h, 8 h, 10 h, 12 h and 24 h after drug administration in EP tubes containing EDTA, centrifuged at 8000 rpm/min for 5 min, and then the upper layer of plasma was frozen at −80° C. and stored for LC-MS/MS analysis.
Intravenous administration: the compound was administered with 10% DMSO/30% PEG400/60% water at a dose of 1 mg/kg). The blood was taken continuously at 0.0833 h, 0.25 h, 0.5 h, 1 h, 2 h, 4 h, 8 h, 12 h and 24 h after drug administration in EP tubes containing EDTA, centrifuged at 8000 rpm/min for 5 min and then the upper layer of plasma was frozen at −80° C. and stored for LC-MS/MS analysis.
The pharmacokinetic parameters were calculated from the blood concentration-time data obtained from the tests using WinNonlin software.

The test system of series [4] is hCoV-19/USA/Chicago IL/2022 (BA.5.2). Nature of the series: In vitro antiviral activity against SARS-CoV-2 BA.5.2 in Calu-3 cells (NP ELISA, percent virus reduction). The series is classed as cell-based. Particulars: Severe acute respiratory syndrome coronavirus 2, Calu-3, 48 h.
[5] abbreviates: intravenous, 1 mg/kg, read-out: Intravenous injection AUClast.
Where [6] appears, read: oral, 2 mg/kg, read-out: Oral AUClast.

By EC50 is commonly meant the midpoint of the concentration-response curve.

Read-outs that look alike come from different tables or passages of the source.

In the case of `[2H]C([2H])([2H])n1cc2cc(Nc3nc(=O)n(Cc4cscn4)c(=O)n3Cc3cc(F)c(F)cc3F)c(Cl)cc2n1` [Compound 16], the EC50 in series [1] was found to be 16 nM; in series [4] it was 22 nM. Moreover, the AUC(0-t) in series [2] (iv, 1 mg/kg) turned out to be 7040 ng·h/mL; in series [2] (po, 10 mg/kg) it was 139000 ng·h/mL; in series [3] (setting [5]), 3680 ng·h/mL; in series [3] (setting [6]) it was 10100 ng·h/mL.

Consider `[2H]C([2H])([2H])n1cc2cc(Nc3nc(=O)n(Cc4ccon4)c(=O)n3Cc3cc(F)c(F)cc3F)c(Cl)cc2n1` [Compound 17], for which the concentration for a half-maximal effect (EC50) in series [1] came to 30 nM; in series [4], 16 nM. The AUC(0-t) in series [2] (iv, 1 mg/kg) was 25400 ng·h/mL; in series [2] (po, 10 mg/kg) it was 189000 ng·h/mL; in series [3] (setting [5]) it was 41000 ng·h/mL; in series [3] (setting [6]), 64300 ng·h/mL.

`[2H]C([2H])([2H])n1cc2cc(Nc3nc(=O)n(Cc4cocn4)c(=O)n3Cc3cc(F)c(F)cc3F)c(Cl)cc2n1` [Compound 18]: the AUC(0-t) in series [3] (setting [5]) came to 4890 ng·h/mL; in series [3] (setting [6]) it was 10400 ng·h/mL.

With `Cn1cc2cc(Nc3nc(=O)n(Cc4cocn4)c(=O)n3Cc3cc(F)c(F)cc3F)c(Cl)cc2n1` [Compound 26], the AUC(0-t) in series [2] (iv, 1 mg/kg) was 7790 ng·h/mL; in series [2] (po, 10 mg/kg), 14100 ng·h/mL.

`[2H]C([2H])([2H])n1cc2cc(Nc3nc(=O)n(Cc4cscn4)c(=O)n3Cc3cc(F)c(F)c(F)c3)c(Cl)cc2n1` [Compound 40]: the EC50 amounted to 23 nM in series [1] and 40 nM in series [4]. The AUC(0-t) worked out at 9880 ng·h/mL in series [2] (iv, 1 mg/kg); 134000 ng·h/mL in series [2] (po, 10 mg/kg); 36500 ng·h/mL in series [3] (setting [5]); 62400 ng·h/mL in series [3] (setting [6]).

As for `[2H]C([2H])([2H])n1cc2cc(Nc3nc(=O)n(Cc4ccon4)c(=O)n3Cc3cc(F)c(F)c(F)c3)c(Cl)cc2n1` [Compound 41], the values for the concentration for a half-maximal effect (EC50) in series [1] and in series [4] were 31 nM and 33 nM, respectively. The AUC(0-t) in series [2] (iv, 1 mg/kg) stood at 26500 ng·h/mL; in series [2] (po, 10 mg/kg), 234000 ng·h/mL; in series [3] (setting [5]), 40600 ng·h/mL; in series [3] (setting [6]), 63300 ng·h/mL.

Consider `O=c1nc(Nc2cc3cn(CCO)nc3cc2Cl)n(Cc2cc(F)c(F)cc2F)c(=O)n1Cc1ccon1` [Compound 70], for which the concentration for a half-maximal effect (EC50) in series [1] came out at 18 nM; in series [4], 21 nM. Besides, the AUC(0-t) in series [3] (setting [5]) was 4870 ng·h/mL; in series [3] (setting [6]), 9880 ng·h/mL.

`Cn1cc2cc(Nc3nc(=O)n(Cc4nccs4)c(=O)n3Cc3cc(F)c(F)cc3F)c(Cl)cc2n1` [Compound 71]: the results for the EC50 in series [1] and in series [4] were 34 nM and 45 nM, respectively.

As for `Cn1cc2cc(Nc3nc(=O)n(Cc4ncsn4)c(=O)n3Cc3cc(F)c(F)cc3F)c(Cl)cc2n1` [Compound 78], the results for the 50% effective concentration (EC50) in series [1] and in series [4] were 67 nM and 59 nM, respectively.

`O=c1nc(Nc2cc3cn(CCO)nc3cc2Cl)n(Cc2cc(F)c(F)cc2F)c(=O)n1Cc1cscn1` [Compound 97]: the AUC(0-t) was 5670 ng·h/mL in series [2] (iv, 1 mg/kg) and 7660 ng·h/mL in series [2] (po, 10 mg/kg).

`[2H]c1c2cc(Nc3nc(=O)n(Cc4ccon4)c(=O)n3Cc3cc(F)c(F)cc3F)c(Cl)cc2nn1C` [Compound 107]: the AUC(0-t) came out at 21400 ng·h/mL in series [2] (iv, 1 mg/kg) and 209000 ng·h/mL in series [2] (po, 10 mg/kg).
